For one assay, the system named is S. aureus NCTC 8325. The format is cell-based, Staphylococcus aureus.
A further assay has as its system existing biofilms. In words: Action against existing biofilms (general description). The format is cell-based. Conditions: for concentration for action against existing biofilms (not observed even at): organism not stated.
In another assay the test system is biofilm formation. In words: Inhibition of biofilm formation (general description). The format is cell-based. Conditions: organism not stated.
In assay [1] the test system is preformed S. aureus NCTC 8325 biofilms. In words: Preformed biofilm assay (crystal violet). The format is cell-based, Staphylococcus aureus. The protocol:
The effect of auranofin, alone and in combination with antibiotics, on preformed S. aureus biofilms was assessed. Briefly S. aureus NCTC 8325 was plated in 96-well plates as described in Example 2 and incubated 37° C. for 24 hours. Biofilms were then washed 3 times with TSB and 150 μL of fresh TSB and 3 μL of auranofin at the appropriate dilution in DMSO was added to the wells in duplicate. Plates were again sealed with AeraSeal™ and reincubated 37° C. for 24 hours. Biofilm was then detected as described in above.

Assay [2] has as its system A. baumannii D2 biofilm formation. In words: Biofilm prevention assay (crystal violet). The format is cell-based, Acinetobacter baumannii. Conditions: A. baumannii D2, 24 hours. On the procedure:
The effect of auranofin on the formation of A. baumannii D2 biofilm formation was assessed using the biofilm prevention assay described above in Example 2 with slight modifications. Briefly, A. baumannii D2 were grown overnight in LB media and diluted 1/100 before 150 μL was added to the wells of a flat bottomed 96-well plate. Three microliters of auranofin or gentamicin at the appropriate dilution in DMSO was added to the wells in duplicate. Controls included a positive control with bacteria alone with media and 2% DMSO and a negative (no bacteria) control with media containing 2% DMSO. Plates were sealed with AeraSeal™ and incubated at 37° C. for 24 hours. The plates were then washed three times with PBS, dried at 60° C. for 1 hour and stained with crystal violet for 1 hour. The plates were again washed three times with water, dried and scanned prior to the addition of 33% acetic acid to re-solubilize the crystal violet stain bound to the adherent cells. Absorbance was then measured at 595 nm and expressed as a percentage of the bacteria only control.

Assay [3] concerns A. baumannii (D2, A94 and ATCC 17978). In words: Growth assay in LB, absorbance 595 nm. The format is cell-based, Acinetobacter baumannii. On the procedure:
In the first growth assay, three strains of A. baumannii (D2, A94 and ATCC 17978) were cultured in LB in the presence of 1.25, 2.5, 5, 10, 20 or 40 μg/mL auranofin or 1.56, 3.13, 6.25, 12.5, 25, 50, 100 or 200 μg/mL gentamicin for 22-24 hours. Bacterial strains were also grown in the absence of antibiotic, and these were used as controls. The bacterial growth was determined by the measurement of absorbance at 595 nm using a Synergy HT Bio-Tek plate reader. The growth of A. baumannii was then assessed as a percentage of the positive control (bacteria alone grown in the presence of 2% DMSO).
A second growth assay was then performed to determine the effect of a combination of auranofin and gentamicin on bacterial growth. Briefly, A. baumannii was cultured in LB medium for 22-24 hours in the presence of […], 2.5, 5, 10, 20 or 40 μg/ml auranofin and 0, 30, 100, 300 or 1000 μg/ml gentamicin before growth was determined by the measurement of absorbance at 595 nm using a Synergy HT Bio-Tek plate reader. The growth of A. baumannii was then assessed as a percentage of the positive control (bacteria alone grown in the presence of 2% DMSO).

For a further assay, the system named is S. aureus. In words: Resistance frequency assay. The format is cell-based, Staphylococcus aureus. Conditions: CaMHB broth with serial dilutions of the compound.
Assay [4] deals with E. coli K12 single-knockout mutants. In words: Growth assay of Keio library redox mutants. The format is cell-based. The protocol:
To determine whether auranofin acts on the antioxidant pathway mutants from the Keio library, containing single-knockout mutants for all non-essential genes of E. coli K12 were tested in a growth assay.
Auranofin stock solution (20 mg/ml) in dimethyl sulfoxide (DMSO) was serially diluted in DMSO and each dilution added in duplicate to a 96-well plate to a final DMSO concentration of 2% (v/v). An overnight culture of E. coli mutants and wild type were diluted 1:100 in Luria Bertani (LB) broth and 150 μl of this sample was added to each well of the 96-well plates. Control wells included an ‘untreated’ control with bacteria in the presence of 2% DMSO and a negative sample (containing […] growth media in the presence of 2% DMSO). Plates were incubated at […] for 22-24 h and bacterial growth assessed by absorbance at a wavelength of 595 nm. The minimum inhibitory concentration (MIC) was defined as the lowest concentration of compound that inhibited growth compared to the no-treatment control.

Assay [5] has as its system S. aureus (strain SH1000-GFP) in THP-1 cells. In words: S. aureus infection of THP-1 cells (fluorescence microscopy). The format is cell-based, Staphylococcus aureus. The note with it: 1 μg/ml in 0.5% DMSO, moi 3, over 24 h. The protocol: THP-1, a human monocytic cell line was infected with S. aureus (strain SH1000-GFP) at a multiplicity of infection of 3 for 1.5. hours. Cells were washed 3 times and auranofin (1 μg/ml in 0.5% DMSO) or 0.5% DMSO was added. Cells were observed under a fluorescent microscope at various time points post infection (FIG. 3).

Assay [6] deals with rifampicin-resistant S. aureus mutants. The format is cell-based, Staphylococcus aureus. Conditions: discs with 4 μg (4 μg each), TSB agar, overnight, data not shown.
For assay [7], the system named is multi-drug resistant clinical isolates of K. pneumoniae. The format is cell-based, Klebsiella pneumoniae. Conditions: 100 μg disc; C204742, C68761, C188681, C71173. The protocol: The ability of auranofin to inhibit the growth of four multi-drug resistant clinical isolates of K. pneumoniae was assessed. The clinical isolates were C204742 (resistant to ampicillin and gentamicin), C68761 (resistant to ampicillin, trimethoprim and sulfamethoxazole), C188681 (resistant to ampicillin, trimethoprim, sulfamethoxazole, ceftazidime, tobramycin and ciprofloxacin) and C71173 (resistant to ampicillin, trimethoprim, sulfamethoxazole, ceftazidime, tobramycin, gentamicin and ciprofloxacin). These strains have been previously described in Chowdhury et al., (2011) Antimicrob Agents Chemother 55: 3140-3149.
Bacterial colonies were picked and diluted 1/1000 in Luria broth (LB). 100 μL of each dilution was then streaked out on LB plates. Discs impregnated with 100 μg auranofin or 100 μg gentimicin or auranofin and gentamicin (100 μg each) were placed on top of the agar. The plates were incubated overnight at 37° C. and any zone of bacterial inhibition was noted.

The test system of assay [8] is S. aureus NCTC 8325 and clinical isolates. In words: Disc assay for resistance development. The format is cell-based, Staphylococcus aureus. Conditions: 4 μg disc, TSB agar, overnight. On the procedure:
Bacteria were plated on TSB agar. 3M discs (impregnated with 4 μg auranofin, 4 μg rifampicin or DMSO alone) were placed on top of the agar. The plates were incubated overnight at 37° C. and any zone of bacterial inhibition was measured. Any bacterial colonies growing within this zone of inhibition were picked and subsequently analysed for potential resistance against the appropriate compound/antibiotic using a growth or biofilm formation assay as described above. […] These S. aureus Rif mutants were tested in a growth assay and their rifampicin resistance confirmed.

This is an account of results in patent US20180020669A1, “Methods for the Inhibition and Dispersal of Biofilms” (priority 2015, published 2018).

On to `CO[C@H]1/C=C/O[C@@]2(C)Oc3c(C)c(O)c4c(O)c(c(/C=N/N5CCN(C)CC5)c(O)c4c3C2=O)NC(=O)/C(C)=C\C=C\[C@H](C)[C@H](O)[C@@H](C)[C@@H](O)[C@@H](C)[C@H](OC(C)=O)[C@@H]1C` [rifampicin], for which the “time after which bacterial growth starts to increase (development of resistance)” value in the assay with S. aureus NCTC 8325 (0.2 μg/mL and 1 μg/mL rifampicin) is recorded as “about 10 hours”.

Take `CC[C@H]1OC(=O)[C@H](C)[C@@H](O[C@H]2C[C@@](C)(OC)[C@@H](O)[C@H](C)O2)[C@H](C)[C@@H](O[C@@H]2O[C@H](C)C[C@H](N(C)C)[C@H]2O)[C@](C)(O)C[C@@H](C)C(=O)[C@H](C)[C@@H](O)[C@]1(C)O` [erythromycin]: the “concentration for action against existing biofilms (not observed even at)” value with existing biofilms is > 3 µg/mL. Moreover, the “concentration at which inhibition of biofilm formation is observed” value with biofilm formation is 0.1 to 0.3 µg/mL.

Regarding gentamicin, the “effect on biofilm mass, antibiotic alone” value in assay [1] (0.9 or 3 μg/mL rifampicin, 25 or 75 μg/mL gentamicin) is on record as “no effect on biofilm mass”. The “concentration that completely prevented biofilm formation” value in assay [2] is > 20 µg/mL. Further, the “susceptibility in growth assay” value was “partially resistant” in [3] (A. baumannii A94), “susceptible” in [3] (A. baumannii ATCC 17978) and “completely resistant” in assay [3] (A. baumannii D2).

As for `CC(=O)NC[C@H]1CN(c2ccc(N3CCOCC3)c(F)c2)C(=O)O1` [linezolid], in the assay on existing biofilms (at least), the “shift between inhibition of biofilm formation and action against existing biofilms” value is given as ≥ 15 fold. For the same compound, the “concentration for action against existing biofilms (not observed even at)” value in the assay on existing biofilms was > 100 µg/mL. The “concentration at which inhibition of biofilm formation is observed” value in the assay with biofilm formation is ~6 µg/mL.

Regarding `CC[P](CC)(CC)=[Au][S][C@@H]1O[C@H](COC(C)=O)[C@@H](OC(C)=O)[C@H](OC(C)=O)[C@H]1OC(C)=O` [auranofin, 2,3,4,6-tetra-o-acetyl-1-thio-J-D-glucopyranosato-S-(triethylphosphine) gold], in the assay on S. aureus, the “resistance of potential mutants picked from agar plates, growth assay” value is listed as “none of the potentially auranofin-resistant bacteria picked from agar plates were actually resistant”. In addition, the “effect of depletion on sensitivity to auranofin” value in assay [4] (depletion of gor) is “little effect”. Also, the “sensitivity to auranofin compared to the wild-type strain” value in assay [4] (mutant lacking gsha) and in [4] (mutant lacking gshb) was “more sensitive” each time. Also, in assay [1] (5 μg/mL auranofin alone or 1.5 μg/mL rifampicin alone), the “effect on the biofilm, compound alone” value is on record as “only a partial effect”. In addition, the “effect on existing S. aureus biofilm” value in assay [1] (20 μg/mL and 40 μg/mL auranofin) is listed as “essentially eliminating the biofilm”. Further, the “effect on existing S. aureus biofilms (crystal violet staining)” value in [1] (24 hours treatment, FIG. 5) is listed as “dose-dependent inhibitory effect”. In [5], the “intracellular and extracellular S. aureus growth in infected THP-1 cells” value is “inhibited intracellular and extracellular S. aureus growth”. Further, the “zone of inhibition on rifampicin-resistant mutants” value in assay [6] was “Zones of inhibition formed”. The “growth inhibition, disc assay” value in assay [7] is listed as “shows inhibitory activity against all four multi-drug resistant clinical isolates tested”. The “development of resistant bacteria over time” value in the assay with S. aureus NCTC 8325 (0.5, 1 or 5 μg/mL auranofin, or 0.5 μg/mL auranofin with 0.2 μg/mL rifampicin) is “no resistant bacteria were observed”. For the same compound, the “growth inhibitory effect in time kill assay” value with S. aureus NCTC 8325 (auranofin 0.5, 1 or 5 μg/mL, TSB) is “concentration- and time-dependent”. The “bacterial colonies growing within the zone of inhibition (resistance)” value in [8] is “No growth was observed”. Moreover, the zone of inhibition entry in assay [8] (NCTC 8325 and clinical isolates incl. MRSA) is reported as “produced zones of inhibition”.
